Measurements published in patent publication US20230127944A1, “BROAD-SPECTRUM CARBAPENEMS” (priority 2019, published 2023).
In brackets after ≈: the same amount, converted by molar mass.

Tests used:
Assay type in all cases: cell-based
[1] = test system: S. aureus ATCC 33591 (methicillin-resistant); assay: broth microdilution MIC assay, S. aureus 33591; conditions: Staphylococcus aureus, ATCC33591; S. aureus 33591, methicillin-resistant; read-out: MIC, S. aureus 33591
How it was run: (§1)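 CLSI broth microdilution in cation-supplemented Mueller-Hinton broth with 2-fold compound dilutions and an inoculum of 5×10^5 CFU/mL from log-phase cultures. Plates were incubated 16-20 h at 37 °C, and the MIC was read visually as the lowest concentration with no growth.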

[2] = test system: P. aeruginosa 35151 (hyper-permeable strain); assay: broth microdilution MIC assay, P. aeruginosa 35151; conditions: Pseudomonas aeruginosa, read-out: MIC, P. aeruginosa 35151
How it was run: as §1

[3] = test system: E. coli ATCC 25922 (wild-type/QC strain); assay: broth microdilution MIC assay, E. coli 25922; conditions: Escherichia coli, ATCC25922; read-out: MIC, E. coli 25922
How it was run: as §1

[4] = test system: P. aeruginosa Paeβ-17; assay: broth microdilution MIC assay, P. aeruginosa Paeβ-17; conditions: Pseudomonas aeruginosa, read-out: MIC, P. aeruginosa Paeβ-17
How it was run: as §1

[5] = test system: S. aureus USA 300; assay: broth microdilution MIC assay, S. aureus USA300; conditions: Staphylococcus aureus; S. aureus USA300 (MRSA); read-out: MIC, S. aureus USA300
How it was run: as §1

[6] = test system: P. aeruginosa ATCC 27853 (wild-type/QC strain); assay: broth microdilution MIC assay, P. aeruginosa 27853; conditions: Pseudomonas aeruginosa, ATCC27853; read-out: MIC, P. aeruginosa 27853
How it was run: as §1

[7] = test system: P. aeruginosa ΔmexAB-OprM (an efflux pump knockout); assay: broth microdilution MIC assay, P. aeruginosa ΔmexAB-OprM; conditions: Pseudomonas aeruginosa, read-out: MIC, P. aeruginosa ΔmexAB-OprM
How it was run: as §1

[8] = test system: S. aureus USA 600; assay: broth microdilution MIC assay, S. aureus USA600; conditions: Staphylococcus aureus; S. aureus USA600 (MRSA); read-out: MIC, S. aureus USA600
How it was run: as §1

Row | Structure (SMILES) | MIC [1] | MIC [2] | MIC [3] | MIC [4] | MIC [5] | MIC [6] | MIC [7] | MIC [8]
1 | C[C@@H](O)[C@H]1C(=O)N2C(C(=O)O)=C(S[C@H]3C[C@H](N[C@H]4CC[C@H](NC(=N)N)CC4)C3)[C@H](C)[C@H]12 [Example 68, (4R,5S,6S)-3-(((1R,3R)-3-(((1R,4R)-4-guanidinocyclohexyl)amino)cyclobutyl)thio)-6-((R)-1-hydroxyethyl)-4-methyl-7-oxo-1-azabicyclo[3.2.0]hept-2-ene-2-carboxylic acid] | 8 to 32 µg/mL (≈ 17.7 to 70.9 µM) | < 1 µg/mL | < 1 µg/mL | 8 to 32 µg/mL (≈ 17.7 to 70.9 µM) | 1 to 4 µg/mL (≈ 2.21 to 8.86 µM) | 8 to 32 µg/mL (≈ 17.7 to 70.9 µM) | 1 to 4 µg/mL (≈ 2.21 to 8.86 µM) | 1 to 4 µg/mL (≈ 2.21 to 8.86 µM)
2 | C[C@@H](O)[C@H]1C(=O)N2C(C(=O)O)=C(S[C@H]3C[C@H](N[C@H]4CC[C@@H](N)CC4)C3)[C@H](C)[C@H]12 [Example 60, (4R,5S,6S)-3-(((1R,3R)-3-(((1S,4S)-4-aminocyclohexyl)amino)cyclobutyl)thio)-6-((R)-1-hydroxyethyl)-4-methyl-7-oxo-1-azabicyclo[3.2.0]hept-2-ene-2-carboxylic acid] | 8 to 32 µg/mL (≈ 19.5 to 78.1 µM) | < 1 µg/mL | < 1 µg/mL | 8 to 32 µg/mL (≈ 19.5 to 78.1 µM) | 1 to 4 µg/mL (≈ 2.44 to 9.77 µM) | 8 to 32 µg/mL (≈ 19.5 to 78.1 µM) | 1 to 4 µg/mL (≈ 2.44 to 9.77 µM) | 1 to 4 µg/mL (≈ 2.44 to 9.77 µM)
3 | C[C@@H](O)[C@H]1C(=O)N2C(C(=O)O)=C(S[C@@H]3CC[C@H](NC4CCN(C(=N)N)CC4)C3)[C@H](C)[C@H]12 [Example 49, (4R,5S,6S)-3-(((1R,3S)-3-((1-carbamimidoylpiperidin-4-yl)amino)cyclopentyl)thio)-6-((R)-1-hydroxyethyl)-4-methyl-7-oxo-1-azabicyclo[3.2.0]hept-2-ene-2-carboxylic acid] | 1 to 4 µg/mL (≈ 2.21 to 8.86 µM) | < 1 µg/mL | < 1 µg/mL | 8 to 32 µg/mL (≈ 17.7 to 70.9 µM) | 1 to 4 µg/mL (≈ 2.21 to 8.86 µM) | 1 to 4 µg/mL (≈ 2.21 to 8.86 µM) | 1 to 4 µg/mL (≈ 2.21 to 8.86 µM) | 1 to 4 µg/mL (≈ 2.21 to 8.86 µM)
4 | C[C@@H](O)[C@H]1C(=O)N2C(C(=O)O)=C(SC3CN(Cc4ccc(N)nc4)C3)[C@H](C)[C@H]12 [Example 23, (4R,5S,6S)-3-((1-((6-aminopyridin-3-yl)methyl)azetidin-3-yl)thio)-6-((R)-1-hydroxyethyl)-4-methyl-7-oxo-1-azabicyclo[3.2.0]hept-2-ene-2-carboxylic acid] | 8 to 32 µg/mL (≈ 19.8 to 79.1 µM) | < 1 µg/mL | < 1 µg/mL | > 32 µg/mL | 1 to 4 µg/mL (≈ 2.47 to 9.89 µM) | 8 to 32 µg/mL (≈ 19.8 to 79.1 µM) | 1 to 4 µg/mL (≈ 2.47 to 9.89 µM) | 1 to 4 µg/mL (≈ 2.47 to 9.89 µM)
5 | C[C@@H](O)[C@H]1C(=O)N2C(C(=O)O)=C(S[C@@H]3CC[C@@H](NC4CCNCC4)C3)[C@H](C)[C@H]12 [Example 53, (4R,5S,6S)-6-((R)-1-hydroxyethyl)-4-methyl-7-oxo-3-(((1R,3R)-3-(piperidin-4-ylamino)cyclopentyl)thio)-1-azabicyclo[3.2.0]hept-2-ene-2-carboxylic acid] | 8 to 32 µg/mL (≈ 19.5 to 78.1 µM) | < 1 µg/mL | < 1 µg/mL | 8 to 32 µg/mL (≈ 19.5 to 78.1 µM) | 1 to 4 µg/mL (≈ 2.44 to 9.77 µM) | 8 to 32 µg/mL (≈ 19.5 to 78.1 µM) | 1 to 4 µg/mL (≈ 2.44 to 9.77 µM) | 1 to 4 µg/mL (≈ 2.44 to 9.77 µM)
6 | C[C@@H](O)[C@H]1C(=O)N2C(C(=O)O)=C(S[C@H]3C[C@@H](N[C@@H]4CC[C@@H](N)C4)C3)[C@H](C)[C@H]12 [Example 78, (4R,5S,6S)-3-(((1S,3S)-3-(((1R,3R)-3-aminocyclopentyl)amino)cyclobutyl)thio)-6-((R)-1-hydroxyethyl)-4-methyl-7-oxo-1-azabicyclo[3.2.0]hept-2-ene-2-carboxylic acid] | 8 to 32 µg/mL (≈ 20.2 to 80.9 µM) | < 1 µg/mL | < 1 µg/mL | 1 to 4 µg/mL (≈ 2.53 to 10.1 µM) | 1 to 4 µg/mL (≈ 2.53 to 10.1 µM) | 1 to 4 µg/mL (≈ 2.53 to 10.1 µM) | 8 to 32 µg/mL (≈ 20.2 to 80.9 µM) | 1 to 4 µg/mL (≈ 2.53 to 10.1 µM)
7 | C[C@@H](O)[C@H]1C(=O)N2C(C(=O)O)=C(SC3CN([C@H]4CCC[C@H](N)C4)C3)[C@H](C)[C@H]12 [Example 13, (4R,5S,6S)-3-((1-((1S,3S)-3-aminocyclohexyl)azetidin-3-yl)thio)-6-((R)-1-hydroxyethyl)-4-methyl-7-oxo-1-azabicyclo[3.2.0]hept-2-ene-2-carboxylic acid] | 8 to 32 µg/mL (≈ 20.2 to 80.9 µM) | < 1 µg/mL | < 1 µg/mL | 8 to 32 µg/mL (≈ 20.2 to 80.9 µM) | 1 to 4 µg/mL (≈ 2.53 to 10.1 µM) | 8 to 32 µg/mL (≈ 20.2 to 80.9 µM) | 1 to 4 µg/mL (≈ 2.53 to 10.1 µM) | 1 to 4 µg/mL (≈ 2.53 to 10.1 µM)
8 | C[C@@H](O)[C@H]1C(=O)N2C(C(=O)O)=C(S[C@H]3C[C@H](NC4CCNCC4)C3)[C@H](C)[C@H]12 [Example 38, (4R,5S,6S)-6-((R)-1-hydroxyethyl)-4-methyl-7-oxo-3-(((1R,3R)-3-(piperidin-4-ylamino)cyclobutyl)thio)-1-azabicyclo[3.2.0]hept-2-ene-2-carboxylic acid] | 8 to 32 µg/mL (≈ 20.2 to 80.9 µM) | < 1 µg/mL | < 1 µg/mL | 8 to 32 µg/mL (≈ 20.2 to 80.9 µM) | 1 to 4 µg/mL (≈ 2.53 to 10.1 µM) | 8 to 32 µg/mL (≈ 20.2 to 80.9 µM) | 1 to 4 µg/mL (≈ 2.53 to 10.1 µM) | 1 to 4 µg/mL (≈ 2.53 to 10.1 µM)
9 | C[C@@H](O)[C@H]1C(=O)N2C(C(=O)O)=C(S[C@@H]3CCN([C@H]4CC[C@H](CN)CC4)C3)[C@H](C)[C@H]12 [Example 58, (4R,5S,6S)-3-(((R)-1-((1R,4R)-4-(aminomethyl)cyclohexyl)pyrrolidin-3-yl)thio)-6-((R)-1-hydroxyethyl)-4-methyl-7-oxo-1-azabicyclo[3.2.0]hept-2-ene-2-carboxylic acid] | 1 to 4 µg/mL (≈ 2.36 to 9.44 µM) | < 1 µg/mL | < 1 µg/mL | 8 to 32 µg/mL (≈ 18.9 to 75.5 µM) | 1 to 4 µg/mL (≈ 2.36 to 9.44 µM) | 1 to 4 µg/mL (≈ 2.36 to 9.44 µM) | 1 to 4 µg/mL (≈ 2.36 to 9.44 µM) | 1 to 4 µg/mL (≈ 2.36 to 9.44 µM)
10 | C[C@@H](O)[C@H]1C(=O)N2C(C(=O)O)=C(S[C@@H]3CC[C@H](NC4CCNCC4)C3)[C@H](C)[C@H]12 [Example 50, (4R,5S,6S)-6-((R)-1-hydroxyethyl)-4-methyl-7-oxo-3-(((1R,3S)-3-(piperidin-4-ylamino)cyclopentyl)thio)-1-azabicyclo[3.2.0]hept-2-ene-2-carboxylic acid] | 1 to 4 µg/mL (≈ 2.44 to 9.77 µM) | < 1 µg/mL | < 1 µg/mL | 8 to 32 µg/mL (≈ 19.5 to 78.1 µM) | 1 to 4 µg/mL (≈ 2.44 to 9.77 µM) | 8 to 32 µg/mL (≈ 19.5 to 78.1 µM) | 1 to 4 µg/mL (≈ 2.44 to 9.77 µM) | 1 to 4 µg/mL (≈ 2.44 to 9.77 µM)
11 | C[C@@H](O)[C@H]1C(=O)N2C(C(=O)O)=C(S[C@@H]3CCN(C[C@H]4CC[C@H](N)CC4)C3)[C@H](C)[C@H]12 [Example 56, (4R,5S,6S)-3-(((R)-1-(((1R,4R)-4-aminocyclohexyl)methyl)pyrrolidin-3-yl)thio)-6-((R)-1-hydroxyethyl)-4-methyl-7-oxo-1-azabicyclo[3.2.0]hept-2-ene-2-carboxylic acid] | 1 to 4 µg/mL (≈ 2.36 to 9.44 µM) | < 1 µg/mL | < 1 µg/mL | 8 to 32 µg/mL (≈ 18.9 to 75.5 µM) | 1 to 4 µg/mL (≈ 2.36 to 9.44 µM) | 1 to 4 µg/mL (≈ 2.36 to 9.44 µM) | 1 to 4 µg/mL (≈ 2.36 to 9.44 µM) | 1 to 4 µg/mL (≈ 2.36 to 9.44 µM)
12 | C[C@@H](O)[C@H]1C(=O)N2C(C(=O)O)=C(S[C@H]3C[C@@H](N[C@H]4CC[C@@H](N)C4)C3)[C@H](C)[C@H]12 [Example 76, (4R,5S,6S)-3-(((1R,3S)-3-(((1S,3R)-3-aminocyclopentyl)amino)cyclobutyl)thio)-6-((R)-1-hydroxyethyl)-4-methyl-7-oxo-1-azabicyclo[3.2.0]hept-2-ene-2-carboxylic acid] | 8 to 32 µg/mL (≈ 20.2 to 80.9 µM) | < 1 µg/mL | < 1 µg/mL | 1 to 4 µg/mL (≈ 2.53 to 10.1 µM) | 1 to 4 µg/mL (≈ 2.53 to 10.1 µM) | 1 to 4 µg/mL (≈ 2.53 to 10.1 µM) | 8 to 32 µg/mL (≈ 20.2 to 80.9 µM) | 1 to 4 µg/mL (≈ 2.53 to 10.1 µM)
